Consider 22 compounds from patent US6632816B1, “Aromatic derivatives as HIV aspartyl protease inhibitors” (Pharmacor Inc., priority 2002, dated 2003).

A word on the EC50: it is the midpoint of the concentration-response curve. One may read the Ki as the equilibrium dissociation constant of an inhibitor or competing ligand from its target. Higher therefore signals a looser hold on the target.

Read-outs that look alike come from different tables or passages of the source.

In test [1] the test system is HIV-1 laboratory viral strain NL4.3 (wild type virus). As to the kind of experiment: Anti-viral assay in vitro (MTT, infected MT-4 cells). As to conditions: Human immunodeficiency virus 1, MT4, 144 h. The format is cell-based. How it is done:
Anti-viral and Cytotoxicity Assays In Vitro
To evaluate the EC50 of our compounds, various drug concentrations are incubated with the infected cell for six days and then the metabolic activity of the cells is monitored by the MTT assay. (See A. J. Japour et al, Antimicrobial Agents and Chemotherapy, 37, 1095-1101, 1993 and R. Pauwels et al. Journal of Virological Methods, 20, 309-321, 1988)
We use the laboratory viral strain NL4.3 as wild type virus and the cell line used is MT-4 which is a T-cell line highly sensitive to HIV-1. We also use some WT clinical strains. To address the resistance issue we assay the inhibitors with NL4.3 mutants which are designed to be resistant to specific commercially,available inhibitors

Another test has as its target HIV protease (Human immunodeficiency virus type 1 group M subtype B, UniProt P04585). The test can be described thus: biochemical.
Where [2] appears, read: MT-4 cells infected with NL4.3, six days, MTT assay, read-out: EC50.

Text for HIV protease: Enzymatic Assay for Determining the Inhibition Constant (Ki) of Synthetic Compounds Targeting the HIV Protease
This is a fluorometric assay based on the cleavage by protease of a substrate carrying a donor group (EDANS) and an acceptor group (DABCYL) on each side of the cleavage site, interacting together through fluorescence resonance energy transfer (FRET) as described by Matayoshi et al. (Science 247:954-954, 1990).
After calculation of Vo and Vi, the inhibition constant (Ki) of the compound is determined using the equation of Henderson: [formula]
where Vo=the enzyme's initial velocity
Vi=the enzyme velocity in the presence of the inhibitory compound,
[I]=inhibitor concentration, [S]=substrate concentration,
Km=Michaelis-Menten constant and Kiapp=apparent Ki
Graphs are traced and the Ki determined using GraphPad Prism software v.

With `COC(=O)N[C@@H](Cc1ccccc1-c1ccc(OC)cc1)C(=O)NCCCC[C@@H](CO)N(CC(C)C)S(=O)(=O)c1ccc(N)cc1` [Example 31, (1S,5S)-[1-{5-[(4-Amino-benzenesulfonyl)-isobutyl-amino]-6-hydroxy-hexylcarbamoyl}-2-(4′-methoxy-biphenyl-2-yl)-ethyl]-carbamic Acid Methyl Ester], in test [1] (setting [2]), the concentration giving a half-maximal response (EC50) stood at 118 nM. On HIV protease, this compound registered a Ki of 0.667 nM.

On to `CC(C)CN([C@H](CO)CCCCNC(=O)[C@H](Cc1cccc2ccccc12)NC(=O)N1CCOCC1)S(=O)(=O)c1ccc(N)cc1` [Example 32, (1S,5S)-Morpholine-4-carboxylic Acid (1-{5-[(4-Amino-benzenesulfonyl)-isobutyl-amino]-6-hydroxy-hexylcarbamoyl}-2-naphthalen-1-yl-ethyl)-amide], for which, in test [1] (setting [2]), the half-maximal effective concentration (EC50) was 30 nM. At HIV protease, this compound came in with a Ki of 0.782 nM.

For `CC(C)CN([C@H](CO)CCCCNC(=O)[C@H](Cc1ccc2ccccc2c1)NC(=O)N1CCOCC1)S(=O)(=O)c1ccc(N)cc1` [Example 33, (1S,5S)-Morpholine-4-carboxylic Acid (1-{5-[(4-Amino-benzenesulfonyl)-isobutyl-amino]-6-hydroxy-hexylcarbamoyl}-2-naphthalen-2-yl-ethyl)-amide], in test [1] (setting [2]), the half-maximal effective concentration (EC50) was 92 nM. Further, on HIV protease, the inhibition constant Ki amounted to 0.8 nM.

Take `COC(=O)N[C@H](C(=O)NCCCC[C@@H](CO)N(CC(C)C)S(=O)(=O)c1ccc(N)cc1)C(c1ccccc1)c1ccccc1` [Example 34, (1S,5S)-(1-{5-[(4-Amino-benzenesulfonyl)-isobutyl-amino]-6-hydroxy-hexylcarbamoyl}-2,2-diphenyl-ethyl)-carbamic Acid Methyl Ester]: in test [1] (setting [2]), the EC50 stood at 12 nM. On HIV protease, this compound displayed a Ki of 0.5 nM.

Take `COc1ccc(S(=O)(=O)N(CC(C)C)[C@H](CO)CCCCNC(=O)[C@H](Cc2ccc3ccccc3c2)NC(=O)N2CCOCC2)cc1` [Example 35, (1S,5S)-Morpholine-4-carboxylic Acid (1-{6-Hydroxy-5-[isobutyl-(4-methoxy-benzenesulfonyl)-amino]-hexylcarbamoyl}-2-naphthalen-2-yl-ethyl)-amide]: the concentration giving a half-maximal response (EC50) in test [1] is 275 nM. This compound also showed a Ki at HIV protease of 1.3 nM.

In test [1], `COC(=O)N[C@@H](Cc1ccccc1-c1ccc(OC)cc1)C(=O)NCCCC[C@@H](CO)N(CC(C)C)S(=O)(=O)c1ccc(OC)cc1` [Example 36, (1S,5S)-[1-{6-Hydroxy-5-[isobutyl-(4-methoxy-benzenesulfonyl)-amino]-hexylcarbamoyl}-2-(4′-methoxy-biphenyl-2-yl)-ethyl]-carbamic Acid Methyl Ester] returned an EC50 of 2180 nM. The same compound came in with a Ki on HIV protease of 3.2 nM.

As to `CC(C)CN(C(CO)CCCCNC(=O)C(Cc1ccc2ccccc2c1)NC(=O)C1CCOC1)S(=O)(=O)c1ccc(N)cc1` [Example 37, (1S,3R,S,5S)-Tetrahydro-furan-3-carboxylic Acid (1-{5-[(4-Amino-benzenesulfonyl)-isobutyl-amino]-6-hydroxy-hexylcarbamoyl}-2-naphthalen-2-yl-ethyl)-amide], the EC50 in test [1] (setting [2]) was 325 nM. The compound also gave a Ki at HIV protease of 2.7 nM.

As for `COc1ccc(-c2ccccc2C[C@H](NC(=O)N2CCOCC2)C(=O)NCCCC[C@@H](CO)N(CC(C)C)S(=O)(=O)c2ccc(N)cc2)cc1` [Example 38, (1S,5S)-Morpholine-4-carboxylic Acid [1-{5-[(4-Amino-benzenesulfonyl)-isobutyl-amino]-6-hydroxy-hexylcarbamoyl}-2-(4′-methoxy-biphenyl-2-yl)-ethyl]-amide], the EC50 in test [1] (setting [2]) is 93 nM. Also, the Ki at HIV protease came out at 0.533 nM.

Consider `COC(=O)N[C@@H](Cc1ccccc1-c1ccccc1)C(=O)NCCCC[C@@H](CO)N(CC(C)C)S(=O)(=O)c1ccc(N)cc1` [Example 39, (1S,5S)-(1-{5-[(4-Amino-benzenesulfonyl)-isobutyl-amino]-6-hydroxy-hexylcarbamoyl}-2-biphenyl-2-yl-ethyl)-carbamic Acid Methyl Ester], for which, in test [1] (setting [2]), the EC50 is 200 nM. The compound also yielded a Ki on HIV protease of 0.521 nM.

In the case of `CC(C)CN([C@H](CO)CCCCNC(=O)[C@@H](NC(=O)N1CCOCC1)C(c1ccccc1)c1ccccc1)S(=O)(=O)c1ccc(N)cc1` [Example 40, (1S,5S)-Morpholine-4-carboxylic Acid (1-{5-[(4-Amino-benzenesulfonyl)-isobutyl-amino]-6-hydroxy-hexylcarbamoyl}-2,2-diphenyl-ethyl)-amide], the EC50 in test [1] (setting [2]) was 78 nM. This compound returned an inhibition constant Ki on HIV protease of 0.512 nM.

For the compound `CC(C)CN([C@H](CO)CCCCNC(=O)[C@H](Cc1ccc2ccccc2c1)NC(=O)N(C)C)S(=O)(=O)c1ccc(N)cc1` [Example 41, (2S,5S)-N-{5-[(4-Amino-benzenesulfonyl)-isobutyl-amino]-6-hydroxy-hexyl}-2-(3,3-dimethyl-ureido)-3-naphthalen-2-yl-propionamide], in test [1] (setting [2]), the EC50 came out at 79 nM. On HIV protease, this compound came in with a Ki of 1.1 nM.

In the case of `CC(C)CN([C@H](CO)CCCCNC(=O)[C@H](Cc1ccccc1-c1ccccc1)NC(=O)N1CCOCC1)S(=O)(=O)c1ccc(N)cc1` [Example 43, (1S,5S)-Morpholine-4-carboxylic Acid (1-{5-[(4-Amino-benzenesulfonyl)-isobutyl-amino]-6-hydroxy-hexylcarbamoyl}-2-biphenyl-2-yl-ethyl)-amide], the EC50 in test [1] (setting [2]) came to 697 nM. The compound also gave a Ki at HIV protease of 0.598 nM.

`CC(C)CN([C@H](CO)CCCCNC(=O)[C@H](Cc1cccc2ccccc12)NC(=O)N1CCOCC1)S(=O)(=O)c1ccc(N)c(Cl)c1` [Example 44, (1S,5S)-Morpholine-4-carboxylic Acid (1-{5-[(4-Amino-3-chloro-benzenesulfonyl)-isobutyl-amino]-6-hydroxy-hexylcarbamoyl}-2-naphthalen-1-yl-ethyl)-amide]: the EC50 in test [1] (setting [2]) was 134 nM. Also, at HIV protease, the Ki stood at 0.904 nM.

Turning to `COc1ccc(S(=O)(=O)N(CC(C)C)[C@H](CO)CCCCNC(=O)[C@H](Cc2cccc3ccccc23)NC(=O)N2CCOCC2)cc1` [Example 45, (1S,5S)-Morpholine-4-carboxylic Acid (1-{6-Hydroxy-5-[isobutyl-(4-methoxy-benzenesulfonyl)-amino]-hexylcarbamoyl}-2-naphthalen-1-yl-ethyl)-amide], the EC50 in test [1] (setting [2]) worked out at 597 nM. Further, the Ki on HIV protease turned out to be 1.5 nM.

Take `CC(C)CN([C@H](CO)CCCCNC(=O)[C@H](Cc1ccc2ccccc2c1)NC(=O)C(C)(C)C)S(=O)(=O)c1ccc(N)cc1` [Example 46, (1S,5S)-N-(1-{5-[(4-Amino-benzenesulfonyl)-isobutyl-amino]-6-hydroxy-hexylcarbamoyl}-2-naphthalen-2-yl-ethyl)-2,2-dimethyl-propionamide]: the EC50 in test [1] (setting [2]) came to 167 nM. The same compound gave a Ki at HIV protease of 0.809 nM.

As to `CC(C)CN([C@H](CO)CCCCNC(=O)[C@H](Cc1ccc2ccccc2c1)NC(=O)C1CC1)S(=O)(=O)c1ccc(N)cc1` [Example 47, (1S,5S)-Cyclopropanecarboxylic Acid (1-{5-[(4-Amino-benzenesulfonyl)-isobutyl-amino]-6-hydroxy-hexylcarbamoyl}-2-naphthalen-2-yl-ethyl)-amide], in test [1] (setting [2]), the EC50 was 323 nM. In addition, the affinity at HIV protease, expressed as Ki, was 1.4 nM.

With `CC(=O)N[C@@H](Cc1ccc2ccccc2c1)C(=O)NCCCC[C@@H](CO)N(CC(C)C)S(=O)(=O)c1ccc(N)cc1` [Example 48, (2S,5S)-2-Acetylamino-N-{5-[(4-amino-benzenesulfonyl)-isobutyl-amino]-6-hydroxy-hexyl}-3-naphthalen-2-yl-propionamide], in test [1] (setting [2]), the EC50 amounted to 948 nM. The compound also gave a Ki on HIV protease of 3.6 nM.

`COC(=O)N[C@H](C(=O)NCCCC[C@@H](CO)N(CC(C)C)S(=O)(=O)c1ccc(N)c(Cl)c1)C(c1ccccc1)c1ccccc1` [Example 50, (1S,5S)-(1-{5-[(4-Amino-3-chloro-benzenesulfonyl)-isobutyl-amino]-6-hydroxy-hexylcarbamoyl}-2,2-diphenyl-ethyl)-carbamic Acid Methyl Ester]: the EC50 in test [1] (setting [2]) came out at 95 nM. Besides, at HIV protease, the Ki was determined as 0.776 nM.

On to `CC(C)CN([C@H](CO)CCCCNC(=O)[C@H](Cc1ccc2ccccc2c1)NC(=O)N1CCOCC1)S(=O)(=O)c1ccc(N)c(Cl)c1` [Example 51, (1S,5S)-Morpholine-4-carboxylic Acid (1-{5-[(4-Amino-3-chloro-benzenesulfonyl)-isobutyl-amino]-6-hydroxy-hexylcarbamoyl}-2-naphthalen-2-yl-ethyl)-amide], for which the 50% effective concentration (EC50) in test [1] (setting [2]) stood at 194 nM. The compound further showed a Ki at HIV protease of 0.8 nM.

In the case of `COC(=O)N[C@@H](Cc1ccccc1-c1cccc(F)c1)C(=O)NCCCC[C@@H](CO)N(CC(C)C)S(=O)(=O)c1ccc(N)cc1` [Example 52, (1S,5S)-[1-{5-[(4-Amino-benzenesulfonyl)-isobutyl-amino]-6-hydroxy-hexylcarbamoyl}-2-(3′-fluoro-biphenyl-2-yl)-ethyl]-carbamic Acid Methyl Ester], the EC50 in test [1] (setting [2]) came to 152 nM. For the same compound, on HIV protease, the Ki amounted to 0.7 nM.

For the compound `CC(C)CN([C@H](CO)CCCCNC(=O)[C@H](Cc1cccc2ccccc12)NC(=O)N1CCOCC1)S(=O)(=O)c1ccc(F)c(N)c1` [Example 53, (1S,5S)-Morpholine-4-carboxylic Acid (1-{5-[(3-Amino-4-fluoro-benzenesulfonyl)-isobutyl-amino]-6-hydroxy-hexylcarbamoyl}-2-naphthalen-1-yl-ethyl)-amide], the EC50 in test [1] (setting [2]) turned out to be 40 nM. Also, the Ki on HIV protease was 0.626 nM.

For the compound `CC(C)CN([C@H](CO)CCCCNC(=O)[C@H](Cc1ccc2ccccc2c1)NC(=O)c1cccnc1)S(=O)(=O)c1ccc(N)cc1` [Example 54, (1S,5S)-N-(1-{5-[(4-Amino-benzenesulfonyl)-isobutyl-amino]-6-hydroxy-hexylcarbamoyl}-2-naphthalen-2-yl-ethyl)-nicotinanide], the EC50 in test [1] (setting [2]) was 146 nM. The Ki at HIV protease is 1.4 nM.
